# Test results published in patent US5451407A, “Reduction or prevention of skin irritation or sensitization during transdermal administration of a irritating or sensitizing drug” (ALZA Corporation, priority 1993, dated 1995).
# How the values were obtained:
# [1] = system: chloroquine-induced irritation; experiment: Effect of methyl nicotinate on chloroquine-induced irritation (Finn chamber, Minolta Chroma Meter); assay type: in vivo, adult human male; conditions: 0.05 w/v methyl nicotinate with chloroquine base 1% w/v, 16 hours application, human forearm; scored 3 hours to 7 days; FIG. 5
# Description: The following formulations were made to determine the effect of methyl nicotinate on chloroquine-induced irritation:
# 1) chloroquine base 1% w/v, ethanol 24% w/v, HEPPS 5% w/v, hydroxyethylcellulose gel 2% w/v, NaOH q.s. pH 8.5 and distilled water q.s.,
# 2) chloroquine base 1% w/v, methyl nicotinate 0.05 w/v, ethanol 24% w/v, HEPPS 5% w/v, hydroxyethylcellulose gel 2% w/v, NaOH q.s. pH 8.5 and distilled water q.s.,
# 3) methyl nicotinate 0.05 w/v, ethanol 24% w/v, HEPPS 5% w/v, hydroxyethyl cellulose gel 2% w/v, NaOH q.s. pH 8.5 and distilled water q.s., and
# 4) ethanol 24% w/v, HEPPS 5% w/v, hydroxyethylcellulose gel 2% w/v, NaOH q.s. pH 8.5 and distilled water q.s.
# 0.020 ml of each formulation was placed in a Finn® chamber. The chambers were inverted and applied to four skin sites on the forearm of an adult human. […] At 3 hours, 8 hours, 1 day, 2 days, 3 days, 4 days, 6 days and 7 days thereafter, the sites were observed and the intensity of the irritant reaction was scored with a Minolta® Chroma Meter.
# The Minolta® Chroma Meter converts all colors within the range of human perception into a numerical code using the L*, a* and b* notation system. […] Minolta® measurements were made by taking the mean a* value of three readings at the treated site. That result was then subtracted from the mean a* value of three readings at adjacent sites treated with a placebo formulation.
# [2] = system: elicitation of sensitization to propranolol; experiment: Effect of methyl nicotinate on the elicitation of sensitization to propranolol (Minolta Chroma Meter); assay type: in vivo, adult male known to be sensitized to propranolol; conditions: 0.05 w/v percent methyl nicotinate with 0.1 w/v percent propranolol base, two hours application, upper arm; recorded two and three days later; FIG. 6
# Description: The following formulations were made to determine the effect of methyl nicotinate on the elicitation of sensitization to propranolol:
# 1) 0.1 w/v percent propranolol base, 32 w/v percent ethanol, 5 w/v percent HEPPS, 2 w/v percent hydroxyethylcellulose, NaOH q.s. pH 8 and distilled water q.s., and
# 2) 0.1 w/v percent propranolol base, 0.05 w/v percent methyl nicotinate, 32 w/v percent ethanol, 5 w/v percent HEPPS, 2 w/v percent hydroxyethylcellulose, NaOH q.s. pH 8 and distilled water q.s.
# 0.020 ml of each formulation was placed in a Finn® chamber. The chambers were applied to four sites on the upper arm of an adult, who was known to be sensitized to propranolol. After two hours the chambers were removed and the sites washed. The intensity of the reaction was recorded two and three days later using the mean a* measurement recorded by a Minolta® Chroma Meter.
# [3] = system: sensitization and elicitation of sensitization to tetracaine; experiment: Sensitization and elicitation reactions to tetracaine at 72 hours, Minolta Chroma Meter; assay type: in vivo, hairless guinea pigs; conditions: for a" value: challenge 1% tetracaine, alone or + 1% methyl nicotinate, Minolta Chroma Meter
# Description: The Minolta® Chroma Meter converts all colors within the range of human perception into a numerical code using the L*, a* and b* notation system. L* expresses brightness on the black-white axis; a* expresses hue on the red-green axis; and b* expresses chroma on the yellow-blue axis so that a specific numerical code enables an exact color description of an object. Minolta® measurements were made by taking the mean a* value of three readings at the treated site.
# (§1) After the ninth induction exposure, the animals received no treatment for two weeks. The following formulations were used to determine the effect of methyl nicotinate on the sensitization and elicitation of sensitization to tetracaine during the challenge phase:
# (§2) 1) 1 w/v percent tetracaine HCl, 28 w/v percent ethanol, 5 w/v percent HEPPS, 2 w/v percent hydroxypropylcellulose, NaOH q.s. pH 8 and distilled water q.s.,
# (§3) 2) 1 w/v percent tetracaine HCl, 1.0 w/v percent methyl nicotinate, 28 w/v percent ethanol, 5 w/v percent HEPPS, 2 w/v percent hydroxypropylcellulose, NaOH q.s. pH 8 and distilled water q.s., and
# (§4) 3) 28 w/v percent ethanol, 5 w/v percent HEPPS, 2 w/v percent hydroxypropylcellulose, NaOH q.s. pH 8 and distilled water q.s.
# (§5) 0.1 ml of each formulation was placed in a Finn® chamber. The chamber was then applied to the backs of the animals for 6 hours on previously untreated sites.
# The test sites of the animals were then scored using a Minolta® Chroma Meter.
# [4] = system: cumulative irritation produced by tetracaine HCl; experiment: Cumulative irritation produced by tetracaine HCl during the induction phase, visual score; assay type: in vivo, hairless guinea pigs; conditions: 2% tetracaine, alone or + 1% methyl nicotinate, Table 1 scale (total possible score 8)
# Description: The following formulations were made to determine the effect of methyl nicotinate on the cumulative irritation produced by tetracaine HCl during the induction phase:
# 1) 2 w/v percent tetracaine HCl, 28 w/v percent ethanol, 5 w/v percent HEPPS, 2 w/v percent hydroxypropylcellulose, NaOH q.s. pH 8 and distilled water q.s.,
# 2) 2 w/v percent tetracaine HCl, 1.0 w/v percent methyl nicotinate, 28 w/v percent ethanol, 5 w/v percent HEPPS, 2 w/v percent hydroxypropylcellulose, NaOH q.s. pH 8 and distilled water q.s., and
# as §4
# 0.1 ml of each formulation was placed in a Finn® chamber, and applied to the back of a hairless guinea pigs (Charles River). After 6 hours the chambers were removed. This was repeated a total of nine times. The inductions were alternated between two sites, such that one site received five applications and the other site received four applications. Two, 24 and 48 hours after removal of the first, fourth, seventh and ninth applications, the treatment sites were scored to assess irritation.
# [5] = system: sensitization and elicitation of sensitization to tetracaine; experiment: Sensitization and elicitation of sensitization to tetracaine during the challenge phase, visual score; assay type: in vivo, hairless guinea pigs; design: scale not given here; conditions: challenge 1% tetracaine, alone or + methyl nicotinate (1.0 w/v percent), Table 1 scale
# Description: as §1, §2, §3, §4, §5
smiles,measurement,setting,value
COC(=O)c1cccnc1 [methyl nicotinate],irritant reaction (mean a* value),[1],reduced the irritant reaction
same,elicitation of the sensitization reaction (mean a* value),[2],inhibited the elicitation of the sensitization reaction
same,elicitation reaction to tetracaine (Minolta scores),[3]; FIG. 9,decreased
same,sensitization reaction to tetracaine (Minolta scores),[3]; FIG. 9,decreased
CCCCNc1ccc(C(=O)OCCN(C)C)cc1 [tetracaine],visual irritation score,"[4]; application four, 2 h after removal",2.7
same,visual irritation score,"[4]; application four, 24 h after removal",2.6
same,visual irritation score,"[4]; application four, 48 h after removal",1.8
same,visual irritation score,"[4]; application nine, 2 h after removal",6.7
same,visual irritation score,"[4]; application nine, 24 h after removal",6.6
same,visual irritation score,"[4]; application nine, 48 h after removal",6.0
same,visual irritation score,"[4]; application one, 2 h after removal",1.9
same,visual irritation score,"[4]; application one, 24 h after removal",1.2
same,visual irritation score,"[4]; application one, 48 h after removal",1.1
same,visual irritation score,"[4]; application seven, 2 h after removal",5.8
same,visual irritation score,"[4]; application seven, 24 h after removal",5.9
same,visual irritation score,"[4]; application seven, 48 h after removal",5.6
same,visual score of challenge site,"[5]; induction 2% tetracaine + 1% methyl nicotinate, 2 h after removal",2.8
same,visual score of challenge site,"[5]; induction 2% tetracaine + 1% methyl nicotinate, 24 h after removal",2.3
same,visual score of challenge site,"[5]; induction 2% tetracaine + 1% methyl nicotinate, 48 h after removal",2.1
same,visual score of challenge site,"[5]; induction 2% tetracaine + 1% methyl nicotinate, 72 h after removal",2.0
same,visual score of challenge site,"[5]; induction 2% tetracaine, 2 h after removal",3.4
same,visual score of challenge site,"[5]; induction 2% tetracaine, 24 h after removal",2.5
same,visual score of challenge site,"[5]; induction 2% tetracaine, 48 h after removal",2.2
same,visual score of challenge site,"[5]; induction 2% tetracaine, 72 h after removal",2.1
same,visual score of challenge site,"[5]; induction Control, 2 h after removal",1.6
same,visual score of challenge site,"[5]; induction Control, 24 h after removal",1.0
same,visual score of challenge site,"[5]; induction Control, 48 h after removal",0.8
same,visual score of challenge site,"[5]; induction Control, 72 h after removal",0.6
same,"a"" value",[3]; induction formulation 2% tetracaine + 1% methyl nicotinate,10.6
same,"a"" value",[3]; induction formulation 2% tetracaine,12.8
same,"a"" value",[3]; induction formulation Control,8.8
